From patent US10502741B2, “Means and methods for detecting activated MALT1” (Helmholtz Zentrum München Deutsches Forschungszentrum für …, priority 2014, dated 2019) come the findings set out here.

Experiment [1] has as its target T1, active MALT1 (Homo sapiens, UniProt Q9UDY8).
T1 construct: endogenous in cells; host or cells: Jurkat T cells, primary human PBMCs and T cells, DLBCL cell lines (HBL1, TMD8, OCI-Ly3, OCI-Ly10, U2932, RIVA, BJAB, Su-DHL-4, Su-DHL-6)
T1 sequence (Q9UDY8 1-824): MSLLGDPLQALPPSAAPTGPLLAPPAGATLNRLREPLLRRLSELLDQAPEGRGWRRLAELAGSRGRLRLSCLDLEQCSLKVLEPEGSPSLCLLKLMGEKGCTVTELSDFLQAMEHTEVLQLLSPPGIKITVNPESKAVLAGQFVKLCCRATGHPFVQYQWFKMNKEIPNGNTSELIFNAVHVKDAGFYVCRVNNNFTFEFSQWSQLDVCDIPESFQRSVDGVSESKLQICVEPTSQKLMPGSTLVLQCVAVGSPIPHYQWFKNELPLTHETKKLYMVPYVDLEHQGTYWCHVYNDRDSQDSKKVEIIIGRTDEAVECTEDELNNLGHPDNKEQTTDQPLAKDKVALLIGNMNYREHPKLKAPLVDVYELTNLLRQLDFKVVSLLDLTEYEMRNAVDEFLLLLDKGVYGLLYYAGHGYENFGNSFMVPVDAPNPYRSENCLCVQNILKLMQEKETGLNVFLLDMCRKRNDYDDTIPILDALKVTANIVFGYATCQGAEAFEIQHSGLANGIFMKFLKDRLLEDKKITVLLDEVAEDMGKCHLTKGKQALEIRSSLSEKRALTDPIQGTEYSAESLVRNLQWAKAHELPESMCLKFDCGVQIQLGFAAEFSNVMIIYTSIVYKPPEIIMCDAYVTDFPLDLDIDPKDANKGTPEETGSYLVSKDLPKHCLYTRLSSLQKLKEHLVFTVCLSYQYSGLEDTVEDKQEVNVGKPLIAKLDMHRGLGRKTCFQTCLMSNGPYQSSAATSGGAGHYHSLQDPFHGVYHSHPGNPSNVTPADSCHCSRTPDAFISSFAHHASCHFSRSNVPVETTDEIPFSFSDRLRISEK
The experiment is described as follows: Labeling with diagnostic inhibitor in cell extracts (gel-based, fluorescence scan): active MALT1 band. The following applies: for effect of inhibitor pretreatment on probe 5 labeling of active MALT1: Jurkat T cells, 10 μM inhibitor before stimulation; for selectivity / background of probe labeling in extracts: Jurkat T cell extracts; for detection of endogenous active MALT1-probe complexes: Jurkat T cells stimulated or not, whole cell lysates. The protocol: (§1) Jurkat T cells were cultured in standard RPMI medium containing 10% FCS, 100 U/ml Penicillin/Streptomycin and 2 mM Glutamin. DNA transfection of 6 μg DNA in 8×10^6 Jurkat T cells was performed by electroporation in a GenePulser Xcell (BioRad) with a 220 Volt pulse. For siRNA experiments, Jurkat T cells were transfected with 100 nM siRNA and Atufect transfection reagent (Silence Therapeutics, Berlin). Jurkat T cells were stimulated either with 200 ng/ml PMA (phorbol 12-myristate 13-acetate) and 300 ng/ml Ionomycin (both Calbiochem) or CD3/CD28 antibody co-ligation (human CD3: 1 μg/ml; human CD28: 4 μg/ml; mouse IgG1: 2 μg/ml; mouse IgG2a: 2 μg/ml; BD Biosciences). DLBCL cell lines (HBL1, TMD8, OCI-Ly3, U2932, RIVA, BJAB, Su-DHL-4 and Su-DHL-6) were cultured in standard RPMI medium containing 20% FCS, 100 U/ml Penicillin/Streptomycin and 2 mM Glutamin. OCI-Ly10 cell line was cultured in IMDM containing 20% human serum, 100 U/ml Penicillin/Streptomycin, 2 U/ml heparine, 50 μM β-mercaptoethanol. Inhibitors 10 μM (z-VRPR-FMK, Mepazine, Thioridazine, CA-074Me) were added to the cells in media for 1 h, prior to stimulation and labeling with diagnostic MALT1 inhibitor.
(§2) Jurkat T cells (1-2×10^7), primary human PBMCs or primary human T cells (0.25 or 1×10^7) were lysed in 150 μl co-IP buffer without protease inhibitors. DLBCL (3×10^7) were lysed in 250 μl buffer. After centrifugation (14000 rpm, 10 min, 4° C.), 100 μl extract (DLBCL: 200 μl) was stained with probe 5 or probe 6 (3 μM end) for 50 min at 29° C., mixed with 4× loading dye and boiled.

For experiment [2], the target named is T2, cathepsin B (Homo sapiens, UniProt P07858). In words: Labeling with diagnostic inhibitor in cell extracts (gel-based, fluorescence scan): about 30 kDa cathepsin B band. The arrangement: endogenous in cells; host or cells: Jurkat T cells; HBL1 and other DLBCL cell lines. The following applies: for effect of inhibitor pretreatment on the band below 34 kDa (cathepsin B) labeled by probe 5: Jurkat T cells, 10 μM inhibitor. Here is the method: as §1, §2

In experiment [3] the target is T1, active MALT1. The experiment is described as follows: ELISA-based assay (MALT1 ELASA) on streptavidin-coated plates with MALT1 antibody detection. It counts as cell-based. The following applies: for effect of inhibitor on active MALT1 signal in DLBCL cells: inhibitor-treated (10 μM) DLBCL cells. The protocol:
as §1
Untreated DLBCL (1×10^7), primary T cells (0.25×10^7) or Jurkat T cells (0.2-1×10^7) (stimulated or not) were lysed in 300 μl co-IP buffer without protease inhibitors, centrifuged, incubated with probe 7 (concentration as depicted) for 1 h at RT, then transferred to streptavidin-coated plates (96 well, clear) and incubated o/n at 4° C. After blocking with 2% BSA in PBS-T, detection was performed by incubation with MALT1 primary antibody (1 h, RT) and HRP-coupled secondary antibody (1 h, RT). […] was determined after TMB substrate incubation in a photometer (Bio-Tek).
(In general: An ELISA detects its analyte on a solid surface through an enzyme-linked reagent.)

In experiment [4] the target is T3, MALT1 (Homo sapiens, UniProt Q9UDY8).
T3 construct: GST
T3 sequence (Q9UDY8 1-824): T1 sequence (Q9UDY8 1-824)
In words: MALT1 in vitro cleavage assay using fluorescent substrate. The format is biochemical. Here is the method:
(§3) C) Impact of indicated compounds on MALT1, Caspase8 and cathepsin B was tested in in vitro cleavage assays using fluorescent substrates. Results and SD from three independent experiments are shown.
Preferably, MALT1 activity is determined in a MALT1 cleavage assay. […] The assay may be performed in cleavage buffer comprising for example 50 mM MES, 1 M sodium citrate pH 7, 150 mM NaCl, 10% sucrose, 0.1% chaps, 10 mM DTT. Catalytically active MALT1 cleaves the substrate and an increase of AMC fluorescence can be measured.

Experiment [5] deals with T2, cathepsin B. The experiment is described as follows: Cathepsin B cleavage assay (zRR-AMC substrate). The following applies: 0.2 ng cathepsin B, 1 mM zRR-AMC, 2 h at 30° C. The arrangement: purchased BioVision. The format is biochemical. Here is the method: as §3
0.2 ng cathepsin B together with probe 5, z-VRPR-FMK (SEQ ID No. 6), mepazine or CA-074 was incubated with 1 mM zRR-AMC substrate for 2 h at 30° C. Assay was performed in 0.1 M sodium acetate pH 5.5, 10 mM DTT and 0.1 mM EDTA. Again, increase of AMC fluorescence is measured in a Synergy 2 Microplate Reader (Biotek).

In experiment [6] the target is T1, active MALT1. The experiment is described as follows: Probe 7-pulldown with streptavidin beads and western blot. The format is cell-based. The protocol: as §1
Untreated DLBCL (1-2×10^7) or Jurkat T cells (stimulated with PMA/Ionomycin or CD3/28 or left untreated; 1-2×10^7), were lysed in 500 μl co-IP buffer without protease inhibitors, centrifuged, incubated with probe 7 (concentration as depicted) for 1 h at RT then incubated with streptavidin beads for 2 h at 4° C. Precipitate was washed, analysed by SDS-PAGE and western blot.
(A western blot detects proteins with antibodies after separation by electrophoresis.)

The mark [7] stands for this setting: HBL1 cells, inhibitors 10 μM each.

Primed or numbered codes have the meaning given here. The star is where a group is joined. FITC = O=C1OC2(c3ccc(O)cc3Oc3cc(O)ccc32)c2ccc(NC(=S)*)cc21; AOMK = acyloxymethyl ketone C-terminal warhead; AOMK″ = acyloxymethyl ketone; BODIPY = not defined here A value given as a limit tells only on which side of the number the result lay.

For `CCCNC(=O)[C@H]1O[C@@H]1C(=O)N[C@H](C(=O)N1CCC[C@H]1C(=O)OC)[C@@H](C)CC` [CA-074Me], the “effect of inhibitor pretreatment on probe 5 labeling of active MALT1” value in experiment [1] is reported as “inducible MALT1 labeling was unaffected”. Moreover, the “effect of inhibitor on the about 30 kDa cathepsin B signal labeled by probe 6” value in experiment [2] (setting [7]) is on record as “sensitive”. In addition, the “effect of inhibitor pretreatment on the band below 34 kDa (cathepsin B) labeled by probe 5” value (“effect of inhibitor pretreatment … by probe 5” below) in experiment [2] is “completely abolished detection”. The “effect of inhibitor on active MALT1 signal in DLBCL cells” value in experiment [3] (probe 7) was “resistant”.
Turning to `CCCNC(=O)[C@H]1O[C@@H]1C(=O)N[C@H](C(=O)N1CCC[C@H]1C(=O)O)[C@@H](C)CC` [CA-074], in experiment [4], the “inhibition of MALT1 protease activity in vitro” value is on record as “neither the non-competitive MALT1 inhibitor mepazine, nor the irreversible cathepsin B specific inhibitor CA-074 showed any cross-inhibition”.
`C=CC(=O)N1CCC[C@@H](n2nc(-c3ccc(Oc4ccccc4)cc3)c3c(N)ncnc32)C1` [Ibrutinib]: in experiment [3] (0.5 nM, ABC DLBCL cells), the “reduction of MALT1 activity” value is given as 50-60%.
With `CN1CCC[C@H](CN2c3ccccc3Sc3ccccc32)C1` [S-mepazine, 10-{[(3S)-1-methylpiperidin-3-yl]methyl}-10H-phenothiazine], the “cellular MALT1 inhibition, inhibitor profiling” value in experiment [3] (ABC DLBCL cell line OCI-Ly3, increasing concentrations) was “slightly more potent”. Further, the “concentrations at which MALT1 was inhibited” value in experiment [3] (all ABC DLBCL cell lines) was 0.3 to 10 µM.
Regarding `CN1CCCC(CN2c3ccccc3Sc3ccccc32)C1` (centres unmarked) [mepazine, 10-[(1-methylpiperidin-3-yl)methyl]-10H-phenothiazine], the “effect of inhibitor on probe 6 labeling of active MALT1” value in experiment [1] (setting [7]) was “sensitivity”. For the same molecule, the “effect of inhibitor pretreatment on probe 5 labeling of active MALT1” value in experiment [1] is recorded as “prevents binding of diagnostic MALT1-inhibitor”. For the same molecule, the “effect of inhibitor pretreatment … by probe 5” value in experiment [2] is reported as “unaffected”. Further, the “inhibition of cathepsin B activity in vitro” value in experiment [5] is “neither the non-competitive MALT1 inhibitor mepazine, nor the irreversible cathepsin B specific inhibitor CA-074 showed any cross-inhibition”. Besides, in experiment [6] (Jurkat T cells pretreated with 10 μM inhibitors, 0.1 μM probe 7), the “effect of inhibitor on formation of MALT1-probe 7 complexes” value was “blocked”. For the same molecule, the “effect of inhibitor on active MALT1 signal in DLBCL cells” value in experiment [3] (probe 7) is “strongly reduced”.
Regarding `CSc1ccc2c(c1)N(CCC1CCCCN1C)c1ccccc1S2` (centres unmarked) [thioridazine, 10-[2-(1-methylpiperidin-2-yl)ethyl]-2-(methylthio)phenothiazine], the “effect of inhibitor pretreatment on probe 5 labeling of active MALT1” value in experiment [1] is “prevents binding of diagnostic MALT1-inhibitor”. In experiment [2], the “effect of inhibitor pretreatment … by probe 5” value is “unaffected”.
Take Ac-Lys(biotin)-LRSR-AOMK [probe 7]: the “detection of MALT1-probe 7 complexes after pulldown” value in experiment [6] (Jurkat T cells, P/I stimulated or not) is “exclusively detected in extracts of P/I stimulated Jurkat T cells”. Further, the “probe concentration sufficient to completely remove active MALT1 from the extracts” value in experiment [6] (extracts of stimulated T cells, supernatant checked with probe 6) amounted to 100 nM. For the same molecule, in experiment [6] (untreated ABC and GCB DLBCL cells, western blot), the “constitutively active MALT1 after pulldown in DLBCL cells” value is listed as “exclusively in ABC, but not in GCB DLBCL cells”. The “probe concentration sufficient to obtain a robust increase in active MALT1” value in experiment [3] (2×10^6 Jurkat T cells stimulated or not) is at most 10 nM. Moreover, in experiment [3] (DLBCL cell lines, probe 7), the “MALT1 activity in ABC versus GCB DLBCL cells, ELISA” value is given as “significant increase in MALT1 activity in ABC DLBCL cells when compared to GCB DLBCL cells”. Besides, the “MALT1 binding to streptavidin-coated plates” value in experiment [3] (Jurkat T cells, stimulated or not) is listed as “only detected in P/I or CD3/CD28 stimulated Jurkat T cells”. Moreover, the “active MALT1 in stimulated primary T cells, ELISA” value in experiment [3] (primary human T cells, 0.1 μM probe 7) is “robust induction of active MALT1”.
Consider “BODIPY-ALVSR-AOMK ({BODIPY}-ALVSR-{AOMK″}; reading uncertain)”, for which, in experiment [1], the “selectivity / background of probe labeling in extracts” value is recorded as “unspecific background labeling of unknown identity at approx. 40 kDa” and the “detection of endogenous active MALT1-probe complexes” value is listed as “exclusively detected after stimulation”. Besides, the “effect of titrating probe concentration on labeling” value in experiment [1] (extracts of stimulated Jurkat T cells) is “decrease background labeling, while active MALT1 activity stays stable”.
With “FITC-LRSR-AOMK ({FITC}-LRSR-{AOMK}) [probe 5]”, in experiment [4], the “inhibition of MALT1 protease activity in vitro” value is “inhibit MALT1”. In addition, the “active MALT1 signal in lymphoma whole cell extracts” value in experiment [1] (ABC DLBCL cells (HBL1 for probe 6)) is reported as “not detectable”. For the same molecule, in experiment [1], the “selectivity / background of probe labeling in extracts” value was “MALT1 was the only inducible band” and the “detection of endogenous active MALT1-probe complexes” value is listed as “exclusively detected after T cell stimulation”. Further, the “detection of active MALT1 in primary cells” value in experiment [1] (extracts of P/I-stimulated PBMCs and human T cells) was “detected active MALT1”. In experiment [5], the “inhibition of cathepsin B activity in vitro” value is recorded as “abrogated cathepsin B activity even though slightly less efficient”.
